Reference: publication PMC10895371, “Phosphorylation of the alpha-I motif in SYMRK drives root nodule organogenesis” (Proceedings of the National Academy of Sciences of the …, 2024)

How the values were obtained:
[1] = target: T1, SYMRK (intracellular domain; SYMRK-WT) (Lotus japonicus, UniProt Q8LKX1, S877D/S885D/S889D/S893D); assay: nanoDSF thermal stability, […] nm fluorescence; type: binding; conditions: 1 mM ATP, 5 mM MgCl2, pH 7.5, 15 min on ice, 25 to 95 °C at 1 °C/min
T1 construct: intracellular kinase region with C-terminal alpha-I motif (intracellular domain modelled as 545-923); E. coli Rosetta 2, pAH10R7Sumo3C, tag cut with 3C, lambda-phosphatase dephosphorylated
T1 sequence (Q8LKX1 entry or part of it S877D/S885D/S889D/S893D): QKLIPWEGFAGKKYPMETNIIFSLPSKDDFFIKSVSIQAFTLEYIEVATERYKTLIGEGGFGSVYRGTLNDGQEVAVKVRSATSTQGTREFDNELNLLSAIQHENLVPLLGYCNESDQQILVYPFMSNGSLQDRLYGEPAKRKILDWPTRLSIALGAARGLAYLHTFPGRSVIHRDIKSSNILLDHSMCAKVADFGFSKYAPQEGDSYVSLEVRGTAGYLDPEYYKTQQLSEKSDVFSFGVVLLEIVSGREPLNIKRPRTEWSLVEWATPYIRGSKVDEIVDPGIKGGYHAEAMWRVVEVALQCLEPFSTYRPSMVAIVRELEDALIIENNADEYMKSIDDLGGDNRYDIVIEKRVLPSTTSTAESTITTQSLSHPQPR

[2] = target: T2, SYMRK (intracellular domain; SYMRK-WT) (Lotus japonicus, UniProt Q8LKX1, S877A/S885A/S889A/S893A); assay: nanoDSF thermal stability, […] nm fluorescence; type: binding; conditions: 1 mM ATP, 5 mM MgCl2, pH 7.5, 15 min on ice, 25 to 95 °C at 1 °C/min
T2 construct: intracellular kinase region with C-terminal alpha-I motif (intracellular domain modelled as 545-923); E. coli Rosetta 2, pAH10R7Sumo3C, tag cut with 3C, lambda-phosphatase dephosphorylated
T2 sequence (Q8LKX1 entry or part of it S877A/S885A/S889A/S893A): as the sequence (Q8LKX1 entry or part of it S877D/S885D/S889D/S893D) above, with D333A, D341A, D345A, D349A counted along it

[3] = target: T3, SYMRK (intracellular domain; SYMRK-WT) (Lotus japonicus, UniProt Q8LKX1); assay: nanoDSF thermal stability, […] nm fluorescence; type: binding; conditions: 1 mM ATP, 5 mM MgCl2, pH 7.5, 15 min on ice, 25 to 95 °C at 1 °C/min
T3 construct: intracellular kinase region with C-terminal alpha-I motif (intracellular domain modelled as 545-923); E. coli Rosetta 2, pAH10R7Sumo3C, tag cut with 3C, lambda-phosphatase dephosphorylated
T3 sequence (Q8LKX1 545-923 limits assumed): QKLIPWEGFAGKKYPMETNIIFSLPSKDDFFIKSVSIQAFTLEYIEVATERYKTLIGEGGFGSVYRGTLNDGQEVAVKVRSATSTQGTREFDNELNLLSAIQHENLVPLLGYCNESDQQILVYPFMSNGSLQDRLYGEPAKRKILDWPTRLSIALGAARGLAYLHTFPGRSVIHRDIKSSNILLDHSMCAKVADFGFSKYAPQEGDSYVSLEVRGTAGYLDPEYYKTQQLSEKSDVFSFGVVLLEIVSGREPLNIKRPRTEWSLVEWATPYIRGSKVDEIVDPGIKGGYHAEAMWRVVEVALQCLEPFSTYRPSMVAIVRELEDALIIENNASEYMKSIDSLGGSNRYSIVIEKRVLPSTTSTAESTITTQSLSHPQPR

[4] = target: T3, SYMRK (intracellular domain; SYMRK-WT); assay: radioactive kinase assay, SDS-PAGE autoradiography; type: biochemical; conditions: labelled compound; 100 nCi, 5 mM MgCl2, MBP co-substrate and autophosphorylation, pH 7.5, room temperature, 1 h
[5] = target: T2, SYMRK (intracellular domain; SYMRK-WT); assay: radioactive kinase assay, SDS-PAGE autoradiography; type: biochemical; conditions: labelled compound; 100 nCi, 5 mM MgCl2, MBP co-substrate and autophosphorylation, pH 7.5, room temperature, 1 h

In the case of `Nc1ncnc2c1ncn2[C@@H]1O[C@H](COP(=O)(O)OP(=O)(O)OP(=O)(O)O)[C@@H](O)[C@H]1O` [ATP], the thermal stabilization [1] is reported as “we purified SYMRK-4D and found it to be monodisperse, thermostable, ATP binding, and catalytically active”, the thermal stabilization [2] is reported as “all proteins except the catalytically inactive SYMRK-K622E control showed ATP-binding capacity” and the thermal stabilization [3] is reported as “all proteins except the catalytically inactive SYMRK-K622E control showed ATP-binding capacity”.
In the case of `Nc1ncnc2c1ncn2[C@@H]1O[C@H](COP(=O)(O)OP(=O)(O)OP(=O)(O)O)[C@@H](O)[C@H]1O` [γ-32P-labeled ATP], the “radioactive kinase assay, SDS-PAGE autoradiography” value [4] is reported as “SYMRK-4A and SYMRK-WT are active kinases capable of both autophosphorylation and transphosphorylation” and the “radioactive kinase assay, SDS-PAGE autoradiography” value [5] is reported as “SYMRK-4A and SYMRK-WT are active kinases capable of both autophosphorylation and transphosphorylation”.
